For 39 molecules, drug sensitivity score results are on record in the supplement of paper PMC8024199.

± gives the standard deviation of the averaged measurements.

Assay in all cases: drug sensitivity score (DSS) (DSS score); higher = more sensitive (stronger growth inhibition); extreme values may be limits of the assay
In assay [1] the test system is Ba/F3 P210-BCR-ABL1 RUNX1-/- (mouse). The essentials:
(§1)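 A drug sensitivity score summarised each dose-response curve, with luminescence from CellTiter-Glo scaled between vehicle and positive-control wells. Values are the mean of two replicates. The cells were mouse Ba/F3 clones that were CRISPR/Cas9-edited at a target exon or were edited controls, exposed on pre-printed 384-well plates to a 528-compound library at five concentrations spanning a 10,000-fold range. Plates held 10,000 cells per well in RPMI with 10% FBS for 72 h at 37 °C and 5% CO2.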

Assay [2] relates to Ba/F3 P210-BCR-ABL1 RUNX1wt/wt control (mouse). The procedure, abridged: as §1
Assay [3] has as its system Ba/F3 P210-BCR-ABL1 RUNX1-/mut (mouse). The essentials: as §1

For `CCc1cncnc1N1CCN(Cc2nc3ccc(C(F)(F)F)cc3[nH]2)CC1`, the drug sensitivity score in assay [1] is 2 ± 1.1; in assay [2] it was 0; in assay [3], 0.8 ± 1.1.

Consider `CCOc1cc2ncc(C#N)c(Nc3ccc(OCc4ccccn4)c(Cl)c3)c2cc1NC(=O)/C=C/CN(C)C` [Neratinib], for which the drug sensitivity score in assay [1] is 2.35 ± 1.5; in assay [2], 0; in assay [3] it was 1.5 ± 2.1.

`N#CC[C@H](C1CCCC1)n1cc(-c2ncnc3[nH]ccc23)cn1` [Ruxolitinib]: the drug sensitivity score in assay [1] amounted to 2.2 ± 0.71; in assay [2], 0; in assay [3], 1.45 ± 2.

Consider `NS(=O)(=O)OC[C@@H]1C[C@@H](n2ccc3c(N[C@H]4CCc5ccccc54)ncnc32)C[C@@H]1O` [Pevonedistat], for which the results for the drug sensitivity score in assay [1], in assay [2] and in assay [3] were 16.1 ± 2.4, 7.65 ± 0.21 and 15.4 ± 2, respectively.

As to `NC[C@@](O)(c1ccc(Cl)cc1)c1ccc(-c2cn[nH]c2)cc1`, the drug sensitivity score in assay [1] is 1.25 ± 1.8; in assay [2], 1.55 ± 0.78; in assay [3] it was 0.05 ± 0.071.

With `COc1ccc(-c2ccc3ncc4c(c3c2)n(-c2ccc(N3CCNCC3)c(C(F)(F)F)c2)c(=O)n4C)cn1` [NVP-BGT226], the drug sensitivity score in assay [1] worked out at 22.4 ± 2.3; in assay [2] it was 14.5; in assay [3] it was 23.1 ± 1.4.

Turning to `CS(=O)(=O)c1ccc(-c2cnc(N)c(C(=O)Nc3ccccc3)n2)cc1` [VE-821], the drug sensitivity score in assay [1] amounted to 5.55 ± 4.5; in assay [2], 1.8; in assay [3] it was 4.3 ± 4.8.

Take `CO[C@@H](C)Cn1c(=O)n(C)c2cnc3ccc(-c4cncc(C(C)(C)O)c4)cc3c21`: the drug sensitivity score in assay [1] worked out at 12.9 ± 0.14; in assay [2], 10.25 ± 0.071; in assay [3], 14.3 ± 1.4.

Turning to `COc1cc(CCc2cc(NC(=O)c3ccc(N4CC(C)NC(C)C4)cc3)n[nH]2)cc(OC)c1` (configuration not stated) [AZD4547], the drug sensitivity score in assay [1] was determined as 0.2 ± 0.28; in assay [2], 0; in assay [3], 0.

With `O=C(c1cccc(Cl)c1F)N1CCN(Cc2cccc(Nc3nccs3)n2)CC1` [MK-8745], the drug sensitivity score in assay [1] was 4.7 ± 0.14; in assay [2], 0.85 ± 0.071; in assay [3], 3.5 ± 0.99.

For the molecule `CC#CC(=O)N1CC[C@@H](n2c(=O)n(-c3ccc(Oc4ccccc4)cc3)c3c(N)ncnc32)C1` [Tirabrutinib], the drug sensitivity score came out at 0.85 ± 0.92 in assay [1], 0 in assay [2] and 0.65 ± 0.78 in assay [3].

Take `C[C@@H]1CN(C(=O)c2ccc(NC(=O)c3cc(O[C@H](C)c4c(Cl)ccc(F)c4Cl)c(N)nn3)cc2)C[C@H](C)N1` [Ensartinib]: the drug sensitivity score in assay [1] turned out to be 2.15 ± 0.92; in assay [2], 0; in assay [3] it was 0.2 ± 0.28.

Regarding `CCN(CC)CCCC(C)Nc1c2ccc(Cl)cc2nc2ccc(OC)cc12` (configuration not stated) [Mepacrine], the drug sensitivity score in assay [1] turned out to be 18.6 ± 2.2; in assay [2], 5.4; in assay [3], 19.7 ± 1.4.

On to `N#Cc1ccc2[nH]c(O)c(-c3ccc(CN4CCOCC4)cn3)c2c1` [AZD-1080], for which the drug sensitivity score in assay [1], in assay [2] and in assay [3] was 0 each time.

As to `CC(O)(CS(=O)(=O)c1ccc(F)cc1)C(=O)Nc1ccc(C#N)c(C(F)(F)F)c1` (configuration not stated) [Bicalutamide], the drug sensitivity score was found to be 0.25 ± 0.35 in assay [1], 0 in assay [2] and 1.15 ± 1.6 in assay [3].

As to `CC(C)N(C[C@H]1O[C@@H](n2cnc3c(N)ncnc32)[C@H](O)[C@@H]1O)[C@H]1C[C@@H](CCc2nc3cc(C(C)(C)C)ccc3[nH]2)C1` [Pinometostat], the drug sensitivity score in assay [1], in assay [2] and in assay [3] was 0 throughout.

As for `CC(C)(O)CNc1nc(Nc2ccnc(C(F)(F)F)c2)nc(-c2cccc(C(F)(F)F)n2)n1` [Enasidenib], the results for the drug sensitivity score in assay [1], in assay [2] and in assay [3] were 0.4 ± 0.14, 0 and 0.55 ± 0.78, respectively.

With `CON(C)C(=O)N1N=C(c2cc(F)ccc2F)S[C@@]1(CCCN)c1ccccc1` [Filanesib], the drug sensitivity score in assay [1] is 19.6 ± 2.2; in assay [2] it was 7.85 ± 0.35; in assay [3], 14.95 ± 0.071.

For the molecule `CC[C@]1(O)C[C@H]2CN(CCc3c([nH]c4ccccc34)[C@@](C(=O)OC)(c3cc4c(cc3OC)N(C=O)[C@H]3[C@@](O)(C(=O)OC)[C@H](OC(C)=O)[C@]5(CC)C=CCN6CC[C@]43[C@@H]65)C2)C1` [Vincristine], the results for the drug sensitivity score in assay [1], in assay [2] and in assay [3] were 23.9 ± 4.2, 13.9 ± 2.3 and 23.1 ± 2.5, respectively.

With `O=C(NOC[C@H](O)CO)c1ccc(F)c(F)c1Nc1ccc(I)cc1F`, the values for the drug sensitivity score in assay [1], in assay [2] and in assay [3] were 7.95 ± 0.92, 0.2 ± 0.28 and 3.85 ± 1.1, respectively.

For `Cn1nccc1Nc1nccc(-c2ccn([C@H](CO)c3ccc(Cl)c(F)c3)c(=O)c2)n1` [Ravoxertinib], the drug sensitivity score is 2.75 ± 2.6 in assay [1], 0.05 ± 0.071 in assay [2] and 1.3 ± 1.8 in assay [3].

`O=C(NC1CCNCC1)c1n[nH]cc1NC(=O)c1c(Cl)cccc1Cl` [AT7519]: the drug sensitivity score worked out at 11.7 ± 3.6 in assay [1], 2.8 ± 0.42 in assay [2] and 13.6 ± 4 in assay [3].

In the case of `Cc1sc2c(c1C)C(c1ccc(Cl)cc1)=N[C@@H](CC(=O)Nc1ccc(OCCOCCOCCOCCNc3cccc4c3C(=O)N(C3CCC(=O)NC3=O)C4=O)cc1)c1nnc(C)n1-2` (some centres not stated) [ARV-825], the drug sensitivity score is 19.8 ± 0.14 in assay [1], 17.9 ± 0.78 in assay [2] and 18.7 ± 3.1 in assay [3].

For the molecule `CN1CCC(CNc2ccc3ncc(-c4cccc(OC(F)(F)F)c4)n3n2)CC1` [SGI-1776], the drug sensitivity score in assay [1] is 10.1 ± 0.71; in assay [2], 5.2 ± 0.14; in assay [3], 9.65 ± 2.2.

For `CN(C)Cc1ccc(S(=O)(=O)n2ccc(/C=C/C(=O)NO)c2)cc1` [Resminostat], the drug sensitivity score amounted to 15.8 ± 0.78 in assay [1], 13.1 ± 0.57 in assay [2] and 15.2 ± 0.92 in assay [3].

`C=CC(=O)Nc1cc(Nc2nccc(-c3cn(C)c4ccccc34)n2)c(OC)cc1N(C)CCN(C)C` [Osimertinib]: the drug sensitivity score in assay [1] amounted to 5.6 ± 0.28; in assay [2], 1.25 ± 1.2; in assay [3], 5.6 ± 0.57.

Take `Cc1ccc(C(=O)Nc2ccc(Oc3cc4cnn(C)c4cc3-c3cn[nH]c3)c(F)c2)c(=O)n1-c1ccc(F)cc1` [Merestinib]: the drug sensitivity score in assay [1] is 0; in assay [2] it was 0.05 ± 0.071; in assay [3], 0.

Take `Cc1cnc(-c2ccccc2C(C)C)nc1NCc1ccc(-n2ccnn2)cc1` [ML323]: the figures for the drug sensitivity score in assay [1], in assay [2] and in assay [3] were 4.4 ± 1.6, 1.25 ± 0.071 and 3.35 ± 2.9, respectively.

Regarding `CC(C)c1cc(C(=O)N2Cc3ccc(CN4CCN(C)CC4)cc3C2)c(O)cc1O` [Onalespib], the drug sensitivity score in assay [1] turned out to be 19.1 ± 2.9; in assay [2], 14.6 ± 0.21; in assay [3] it was 17.8 ± 1.1.

In the case of `Cn1cc(C2=Nc3cc(NC(=O)C(N)C4CCCCC4)cc4c3C2=CNNC4=O)cn1` (configuration not stated), the drug sensitivity score was 18.2 ± 0.14 in assay [1], 7.95 ± 1.1 in assay [2] and 16 ± 0.42 in assay [3].

In the case of `O=C(O)c1ccc(O)c2ncccc12` [IOX-1], the values for the drug sensitivity score in assay [1], in assay [2] and in assay [3] were 2.5 ± 2, 1.75 ± 0.21 and 2.4 ± 2.8, respectively.

On to `CCOc1ccn(-c2ccc(F)cc2)c(=O)c1C(=O)Nc1ccc(Oc2ccnc(N)c2Cl)c(F)c1`, for which the drug sensitivity score came out at 0.1 ± 0.14 in assay [1], 0 in assay [2] and 0 in assay [3].

Consider `NC(=S)N/N=C/c1ncccc1N` [Triapine], for which the drug sensitivity score worked out at 5.6 ± 0.28 in assay [1], 4.65 ± 0.071 in assay [2] and 5.05 ± 0.071 in assay [3].

Regarding `Cc1cc(Nc2cc(N3CCN(C)CC3)nc(Sc3ccc(NC(=O)C4CC4)cc3)n2)n[nH]1` [Tozasertib], the drug sensitivity score in assay [1] worked out at 17.7 ± 0.14; in assay [2], 7.95 ± 0.071; in assay [3], 12.3 ± 0.85.

As for `Cc1cc([C@@H](C)Nc2ccccc2C(=O)O)c2nc(N3CCOCC3)cc(=O)n2c1` [AZD-6482], the drug sensitivity score in assay [1] came to 0.1 ± 0.14; in assay [2], 0.15 ± 0.21; in assay [3] it was 0.75 ± 1.1.

In the case of `Cc1cc(Nc2ncnc3ccc(NC4=NC(C)(C)CO4)cc23)ccc1Oc1ccn2ncnc2c1` [Tucatinib], the results for the drug sensitivity score in assay [1], in assay [2] and in assay [3] were 0.4 ± 0.57, 0 and 0, respectively.

As to `COc1cc(Nc2ncc(F)c(Nc3ccc4c(n3)N(COP(=O)(O)O)C(=O)C(C)(C)O4)n2)cc(OC)c1OC` [Fostamatinib], the figures for the drug sensitivity score in assay [1], in assay [2] and in assay [3] were 1.4 ± 0.14, 0.45 ± 0.49 and 0.45 ± 0.64, respectively.

Consider `COCCNCc1ccc(-c2cc3nccc(Oc4ccc(NC(=O)C5(C(=O)Nc6ccc(F)cc6)CC5)cc4F)c3s2)nc1` [Sitravatinib], for which the values for the drug sensitivity score in assay [1], in assay [2] and in assay [3] were 8.95 ± 0.35, 0 and 4.6 ± 0.71, respectively.

On to `Cc1ccc(=O)n(-c2ccccc2)c1` [Pirfenidone], for which the drug sensitivity score in assay [1], in assay [2] and in assay [3] was 0 each time.
